IC50 and hepatocyte CLint data for ten compounds are collected here from patent publication US20230250095A1, “BENZIMIDAZOLE DERIVATIVES, PREPARATION METHOD THEREFOR AND MEDICAL USE THEREOF” (TUOJIE BIOTECH(SHANGHAI) CO., LTD., priority 2020, published 2023).

One data set addresses T1, hP2X3 (Homo sapiens, UniProt P56373).
T1 construct: host or cells: 1321N1 cells
T1 sequence (P56373 1-397): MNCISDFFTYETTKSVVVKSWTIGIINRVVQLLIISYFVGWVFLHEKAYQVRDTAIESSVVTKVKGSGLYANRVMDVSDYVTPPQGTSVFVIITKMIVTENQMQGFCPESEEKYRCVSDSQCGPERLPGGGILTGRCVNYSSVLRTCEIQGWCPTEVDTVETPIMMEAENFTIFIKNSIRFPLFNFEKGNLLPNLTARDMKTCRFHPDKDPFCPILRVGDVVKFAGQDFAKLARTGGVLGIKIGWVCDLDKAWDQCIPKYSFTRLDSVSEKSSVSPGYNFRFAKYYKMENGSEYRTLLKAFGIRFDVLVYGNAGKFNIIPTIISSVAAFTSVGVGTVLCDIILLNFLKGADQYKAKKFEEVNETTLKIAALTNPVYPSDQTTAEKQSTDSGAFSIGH
The data set is described as follows: FLIPR calcium flux assay, antagonistic activity against hP2X3 receptor. The format is cell-based. To be noted: 1321N1/hP2X3 cells, agonist α,β-meATP 500 nM. The method, then: (§1) The compounds were screened for antagonistic activity against hP2X3 and hP2X2/3 receptors (changes in calcium flux signals represent the effect of the compounds on ion channels) by an FLIPR assay.
(§2) 1321N1 cells (adherent cells) stably transfected with hP2X3 and hP2X2/3 receptors were digested, centrifuged, resuspended in a plating medium (DMEM+10% DFBS) and counted, adjusted to 2×10^5 cells/mL. The cells were seeded in a 384-well assay plate at 50 μL/well, and incubated in an incubator at 37° C. with 5% CO2 for 16-24 h. Test compounds (20 mM DMSO stock solution) that were 180 times the desired concentration were prepared with DMSO, and added to a 384-well compound plate at 500 nL/well. Then, each well was supplemented with 30 μL of FLIPR buffer (lx HBSS containing 1.26 mM Ca^2++2 mM CaCl2)+20 mM HEPES), and the mixture was shaken for 20-40 min to be mixed well. The agonist α,β-meATP (final concentration of 500 nM for hP2X3 cells and final concentration of 1000 nM for hP2X2/3 cells) that was 3 times the desired concentration was prepared with an FLIPR buffer, and added to another 384-well compound plate at 35 μL/well. The cell plate in which cells had been plated and cultured for 16-24 h was taken out, and the cell supernatant was removed by pipetting. 30 μL of dye (FLIPR® calcium 4 assay kit, diluted with an FLIPR buffer) was added to each well, and the plate was incubated for 1 h. 15 μL of the compound was added to each well containing cells (dosing using an FLIPR instrument), and after 15 min, 22.5 μL of agonist was added to each well and the fluorescent signal was detected (excitation wavelength: 470-495 nm, emission wavelength: 515-575 nm). With the difference between the peak and the trough of the signal taken as the basic data, the data of the highest concentration of the positive drug taken as the 100% inhibition rate, and the data of DMSO taken as the 0% inhibition rate, the inhibition effect curves of the compounds were fitted on the software Graphpad Prism 6 and IC50 values were calculated.
In general terms: Calcium flux is commonly read through the fluorescence of an indicator in the cells.

The target in another data set is T2, hP2X2/3 (Homo sapiens, UniProt P56373+Q9UBL9).
T2 construct: host or cells: 1321N1 cells
T2 sequence (Q9UBL9 1-471): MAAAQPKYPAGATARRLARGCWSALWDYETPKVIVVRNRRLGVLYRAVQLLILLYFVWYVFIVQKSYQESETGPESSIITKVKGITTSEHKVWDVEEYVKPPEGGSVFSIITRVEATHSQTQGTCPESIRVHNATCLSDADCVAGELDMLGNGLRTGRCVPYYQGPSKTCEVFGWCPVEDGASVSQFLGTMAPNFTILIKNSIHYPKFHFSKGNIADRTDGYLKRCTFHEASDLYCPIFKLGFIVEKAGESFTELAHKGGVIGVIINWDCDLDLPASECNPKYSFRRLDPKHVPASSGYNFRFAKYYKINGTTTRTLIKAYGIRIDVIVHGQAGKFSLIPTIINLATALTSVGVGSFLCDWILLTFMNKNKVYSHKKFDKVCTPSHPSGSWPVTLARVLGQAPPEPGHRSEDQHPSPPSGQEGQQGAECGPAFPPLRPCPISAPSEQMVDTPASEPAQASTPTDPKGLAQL
T2 sequence (P56373 1-397): T1 sequence (P56373 1-397)
The data set is described as follows: FLIPR calcium flux assay, antagonistic activity against hP2X2/3 receptor. The format is cell-based. To be noted: 1321N1/hP2X2/3 cells, agonist α,β-meATP 1000 nM. The method, then:
as §1, §2

Data set [1] can be described thus: In vitro metabolic stability in human hepatocytes. It is filed as in vitro ADME. The note with it: human hepatocytes 1×10^6 cells/mL, 37° C., up to 120 min; read-out: Intrinsic clearance (uL/min/10^6 cells). The method, then:
The concentrations of the test compounds in the reaction system were determined by LC/MS/MS, so that the intrinsic clearance of the test compounds was calculated, and the in vitro metabolic stability in human hepatocytes was evaluated.
247.5 μL of a mixed solution of human hepatocytes at 1×10^6 cells/mL (purchased from BioreclamationIVT, Cat. No. S01205) and 2.5 μL of 100 μM test compound or positive control was added to a plate to initiate the reaction. The plate was incubated at 37° C. and 600 rpm. 20 μL of incubation system was transferred to a stop plate at 0.5 min, 5 min, 15 min, 30 min, 45 min, 60 min, 80 min, 100 min and 120 min. Then, the mixture was vortexed for 2 min to be mixed well. The stop plate was centrifuged at 4000 rpm for 20 min. 40 μL of supernatant of each compound was transferred to a 96-well sample template, after which 160 μL of pure water was added to dilute the samples.
The resulting samples were quantified from ion chromatogram. The residual rate was calculated from the peak area of the test compound or the positive control. Slope k was determined by linear regression of the […] of residual rates versus incubation time using Microsoft Excel.
Intrinsic clearance (in vitro CLint, μL/min/10^6 cells) was calculated from the slope value according to the following equation:
V=incubation volume (0.25 mL);
N=number of cells per well (0.25×10^6 cells)

A word on the IC50: it is the midpoint of a concentration-inhibition curve. As to `CC(=O)N1CCO[C@@H](Cn2c(-c3c(F)cc(N4CCCC4=O)cc3F)nc3cc(Cl)cc(F)c32)C1` [Compound 13, (S)-1-(4-(1-((4-acetylmorpholin-2-yl)methyl)-5-chloro-7-fluoro-1H-benzo[d]imidazol-2-yl)-3,5-difluorophenyl)pyrrolidin-2-one], on hP2X3, the IC50 was determined as 766 nM.

With `CC(=O)N1CCO[C@@H](Cn2c(-c3c(F)cc(N4CCCC4=O)cc3Cl)nc3cc(Cl)c(F)cc32)C1` [Compound 12, (S)-1-(4-(1-((4-acetylmorpholin-2-yl)methyl)-5-chloro-6-fluoro-1H-benzo[d]imidazol-2-yl)-3-chloro-5-fluorophenyl)pyrrolidin-2-one], the IC50 at hP2X3 was 87.7 nM.

Consider `CCC(=O)N1CCO[C@@H](Cn2c(-c3c(Cl)cc4c(c3F)OCC(=O)N4)nc3cc(C)ccc32)C1` [Compound 17, (S)-6-chloro-8-fluoro-7-(5-methyl-1-((4-propionylmorpholin-2-yl)methyl)-1H-benzo[d]imidazol-2-yl)-2H-benzo[b][1,4]oxazin-3(4H)-one], for which the IC50 is 3500 nM at hP2X2/3 and 45.3 nM on hP2X3. The hepatocyte CLint at 1 μM in data set [1] came to 4.1 µL/min/1e6 cells.

On to `CNC(=O)c1cc(F)c(-c2nc3nc(C)ccc3n2C[C@H]2CN(C(=O)OC)CCO2)c(F)c1` [Compound 7, Methyl (S)-2-((2-(2,6-difluoro-4-(methylcarbamoyl)phenyl)-5-methyl-1H-imidazo[4,5-b]pyridin-1-yl)methyl)morpholine-4-carboxylate], for which the IC50 at hP2X3 was determined as 5840 nM.

As to `Cc1ccc2c(c1)nc(-c1c(F)cc(N3CCCC3=O)cc1Cl)n2C[C@H]1CN(C(=O)C2CC2)CCO1` [Compound 15, (S)-1-(3-chloro-4-(1-((4-(cyclopropylcarbonyl)morpholin-2-yl)methyl)-5-methyl-1H-benzo[d]imidazol-2-yl)-5-fluorophenyl)pyrrolidin-2-one], the IC50 on hP2X3 was found to be 85.1 nM.

With `CNC(=O)c1cc(F)c(-c2nc3cc(C)cnc3n2C[C@H]2CN(C(=O)OC)CCO2)c(F)c1` [Compound 6, Methyl (S)-2-((2-(2,6-difluoro-4-(methylcarbamoyl)phenyl)-6-methyl-3H-imidazo[4,5-b]pyridin-3-yl)methyl)morpholine-4-carboxylate], the IC50 on hP2X3 is more than 10000 nM.

As for `CNC(=O)c1cc(F)c(-c2nc3cc(C)ncc3n2C[C@H]2CN(C(=O)OC)CCO2)c(F)c1` [Compound 8, Methyl (S)-2-((2-(2,6-difluoro-4-(methylcarbamoyl)phenyl)-6-methyl-3H-imidazo[4,5-c]pyridin-3-yl)methyl)morpholine-4-carboxylate], at hP2X3, the IC50 is more than 10000 nM.

With `CC(=O)N1CCO[C@@H](Cn2c(-c3c(F)cc(N4CCCC4=O)cc3Cl)nc3cc(C)c(F)cc32)C1` [Compound 11, (S)-1-(4-(1-((4-acetylmorpholin-2-yl)methyl)-6-fluoro-5-methyl-1H-benzo[d]imidazol-2-yl)-3-chloro-5-fluorophenyl)pyrrolidin-2-one], the IC50 on hP2X3 turned out to be 79.4 nM.

For `Cc1ccc2c(c1)nc(-c1c(F)cc(N3CCCC3=O)cc1Cl)n2C[C@H]1CN(C(=O)CC(F)(F)F)CCO1` [Compound 16, (S)-1-(3-chloro-5-fluoro-4-(5-methyl-1-((4-(3,3,3-trifluoropropionyl)morpholin-2-yl)methyl)-1H-benzo[d]imidazol-2-yl)phenyl)pyrrolidin-2-one], at hP2X3, the IC50 was determined as 70.5 nM.

Take `CC(=O)N1CCO[C@@H](Cn2c(-c3c(F)cc(N4CCCC4=O)cc3F)nc3cc(C(F)F)ccc32)C1` [Compound 5, (S)-1-(4-(1-((4-acetylmorpholin-2-yl)methyl)-5-(difluoromethyl)-1H-benzo[d]imidazol-2-yl)-3,5-difluorophenyl)pyrrolidin-2-one]: the IC50 on hP2X3 was 100 nM.
